# In patent publication US20210253582A1, “SALTS AND SOLID FORMS AND PROCESSES OF PREPARING A PI3K INHIBITOR” (Incyte Corporation, priority 2020, published 2021):
# Target: T1, PI3K (Homo sapiens, UniProt O00329)
# T1 construct: purchased Millipore (Bedford, Mass.)
# Assay: PI3K enzyme assays (at least one assay described herein)
# Type: biochemical
# Settings: according to at least one assay described herein; assay not specified
# Excerpt: PI3-Kinase luminescent assay kit including lipid kinase substrate, D-myo-phosphatidylinositol 4,5-bisphosphate (PtdIns(4,5)P2)D (+)-sn-1,2-di-O-octanoylglyceryl, 3-O-phospho linked (PIP2), biotinylated I(1,3,4,5)P4, PI(3,4,5)P3 Detector Protein is purchased from Echelon Biosciences (Salt Lake City, Utah). AlphaScreen™ GST Detection Kit including donor and acceptor beads was purchased from PerkinElmer Life Sciences (Waltham, Mass.). PI3Kδ (p110δ/p85α) is purchased from Millipore (Bedford, Mass.). ATP, MgCl2, DTT, EDTA, HEPES and CHAPS are purchased from Sigma-Aldrich (St. Louis, Mo.).
# The kinase reaction are conducted in 384-well REMP plate from Thermo Fisher Scientific in a final volume of 40 μL. Inhibitors are first diluted serially in DMSO and added to the plate wells before the addition of other reaction components. The final concentration of DMSO in the assay is 2%. The PI3K assays are carried out at room temperature in 50 mM HEPES, pH 7.4, 5 mM MgCl2, 50 mM NaCl, 5 mM DTT and CHAPS 0.04%. […] The activity of the product is determined on Fusion-alpha microplate reader (Perkin-Elmer). […]
# The kinase reactions are conducted in clear-bottom 96-well plate from Thermo Fisher Scientific in a final volume of 24 μL. […] After the plate sealing, the radioactivity of the product is determined by scintillation counting on Topcount (Perkin-Elmer). […]
# T1 sequence (O00329 whole entry): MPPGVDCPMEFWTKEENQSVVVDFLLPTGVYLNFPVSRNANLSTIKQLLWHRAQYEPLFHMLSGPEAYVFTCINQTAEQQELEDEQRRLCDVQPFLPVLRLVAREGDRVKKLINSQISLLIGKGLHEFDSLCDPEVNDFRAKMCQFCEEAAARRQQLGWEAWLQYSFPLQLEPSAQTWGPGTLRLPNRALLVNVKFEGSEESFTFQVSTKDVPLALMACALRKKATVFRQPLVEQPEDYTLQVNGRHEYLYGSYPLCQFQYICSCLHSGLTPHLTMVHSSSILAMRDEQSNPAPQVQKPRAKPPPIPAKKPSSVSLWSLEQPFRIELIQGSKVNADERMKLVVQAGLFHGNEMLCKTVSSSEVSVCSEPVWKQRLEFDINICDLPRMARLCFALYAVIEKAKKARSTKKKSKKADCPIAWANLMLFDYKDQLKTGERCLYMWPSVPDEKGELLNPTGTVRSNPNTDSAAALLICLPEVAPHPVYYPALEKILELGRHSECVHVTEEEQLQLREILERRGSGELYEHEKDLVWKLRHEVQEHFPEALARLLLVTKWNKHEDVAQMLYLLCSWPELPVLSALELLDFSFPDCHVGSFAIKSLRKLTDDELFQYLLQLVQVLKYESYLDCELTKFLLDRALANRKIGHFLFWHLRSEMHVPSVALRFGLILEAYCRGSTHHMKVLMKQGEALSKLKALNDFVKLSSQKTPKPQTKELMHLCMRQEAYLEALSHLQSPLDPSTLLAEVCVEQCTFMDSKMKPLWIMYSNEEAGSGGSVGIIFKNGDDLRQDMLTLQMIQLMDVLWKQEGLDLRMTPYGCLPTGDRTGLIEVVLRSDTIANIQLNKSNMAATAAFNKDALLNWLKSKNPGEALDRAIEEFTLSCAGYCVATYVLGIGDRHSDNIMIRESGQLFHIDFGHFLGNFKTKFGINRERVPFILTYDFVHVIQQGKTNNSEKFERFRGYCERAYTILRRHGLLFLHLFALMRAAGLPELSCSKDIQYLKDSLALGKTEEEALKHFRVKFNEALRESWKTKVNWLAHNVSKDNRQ
# T1 sequence (P27986 whole entry partner): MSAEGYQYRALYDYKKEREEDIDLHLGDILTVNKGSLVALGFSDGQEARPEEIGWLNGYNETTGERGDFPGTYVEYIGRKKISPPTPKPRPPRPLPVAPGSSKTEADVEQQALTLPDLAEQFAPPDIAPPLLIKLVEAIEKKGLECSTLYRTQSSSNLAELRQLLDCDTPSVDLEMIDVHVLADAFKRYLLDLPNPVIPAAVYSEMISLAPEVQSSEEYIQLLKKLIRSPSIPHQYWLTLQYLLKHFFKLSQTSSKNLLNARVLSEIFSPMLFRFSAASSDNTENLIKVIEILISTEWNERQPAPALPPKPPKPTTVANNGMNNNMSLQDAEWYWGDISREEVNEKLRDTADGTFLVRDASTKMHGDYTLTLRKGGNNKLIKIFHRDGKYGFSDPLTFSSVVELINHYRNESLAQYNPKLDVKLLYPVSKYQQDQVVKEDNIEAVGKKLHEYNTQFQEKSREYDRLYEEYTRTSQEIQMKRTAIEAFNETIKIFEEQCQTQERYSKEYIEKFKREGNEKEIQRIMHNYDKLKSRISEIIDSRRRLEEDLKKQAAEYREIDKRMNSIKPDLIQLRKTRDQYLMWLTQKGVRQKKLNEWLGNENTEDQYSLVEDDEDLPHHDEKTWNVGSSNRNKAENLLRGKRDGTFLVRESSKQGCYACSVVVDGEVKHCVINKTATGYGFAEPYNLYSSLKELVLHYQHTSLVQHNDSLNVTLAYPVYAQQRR
compound,measurement,value
"CCOc1c([C@H](C)n2nc(C)c3c(N)ncnc32)cc(Cl)c(F)c1[C@@H]1CNC(=O)O1 [compound of Formula I, (R)-5-(3-((S)-1-(4-amino-3-methyl-1H-pyrazolo[3,4-d]pyrimidin-1-yl)ethyl)-5-chloro-2-ethoxy-6-fluorophenyl)oxazolidin-2-one]",PI3K inhibition (qualitative statement),found to be PI3K inhibitors
